Data reported in the CheMixHub viscosity set.
± gives the uncertainty stated by the source.

Test: xn = mol fraction of the nth substance listed

## CC(=O)O.NCCO + O
293.15 K, 101 kPa, x1 = 0.0075
  viscosity: 1.308 ± 0.064 mPa·s
293.15 K, 101 kPa, x1 = 0.0163
  viscosity: 1.512 ± 0.073 mPa·s
293.15 K, 101 kPa, x2 = 0.8718
  viscosity: 7.458 ± 0.39 mPa·s
293.15 K, 101 kPa, x2 = 0.9099
  viscosity: 4.47 ± 0.27 mPa·s
293.15 K, 101 kPa, x2 = 0.9403
  viscosity: 2.88 ± 0.16 mPa·s
293.15 K, 101 kPa, x2 = 0.9641
  viscosity: 2.01 ± 0.1 mPa·s
293.15 K, 101 kPa, x2 = 0.9743
  viscosity: 1.71 ± 0.087 mPa·s
298.15 K, 101 kPa, x1 = 0.0075
  viscosity: 1.17 ± 0.057 mPa·s
298.15 K, 101 kPa, x1 = 0.0163
  viscosity: 1.344 ± 0.065 mPa·s
298.15 K, 101 kPa, x2 = 0.8718
  viscosity: 6.312 ± 0.33 mPa·s
298.15 K, 101 kPa, x2 = 0.9099
  viscosity: 3.84 ± 0.2 mPa·s
298.15 K, 101 kPa, x2 = 0.9403
  viscosity: 2.513 ± 0.13 mPa·s
298.15 K, 101 kPa, x2 = 0.9641
  viscosity: 1.788 ± 0.089 mPa·s
298.15 K, 101 kPa, x2 = 0.9743
  viscosity: 1.512 ± 0.075 mPa·s
303.15 K, 101 kPa, x1 = 0.0075
  viscosity: 1.05 ± 0.053 mPa·s
303.15 K, 101 kPa, x1 = 0.0163
  viscosity: 1.218 ± 0.059 mPa·s
303.15 K, 101 kPa, x2 = 0.8718
  viscosity: 5.448 ± 0.29 mPa·s
303.15 K, 101 kPa, x2 = 0.9099
  viscosity: 3.354 ± 0.15 mPa·s
303.15 K, 101 kPa, x2 = 0.9403
  viscosity: 2.232 ± 0.1 mPa·s
303.15 K, 101 kPa, x2 = 0.9641
  viscosity: 1.584 ± 0.079 mPa·s
303.15 K, 101 kPa, x2 = 0.9743
  viscosity: 1.35 ± 0.064 mPa·s

## OC1CCCCC1 + C1CCCCC1
303.15 K, 101 kPa, x2 = 0.05
  viscosity: 19 ± 1 mPa·s
303.15 K, 101 kPa, x2 = 0.09
  viscosity: 15.63 ± 0.44 mPa·s
303.15 K, 101 kPa, x2 = 0.14
  viscosity: 12.83 ± 0.36 mPa·s
308 K, 101 kPa, x2 = 0.1168
  viscosity: 10.68 ± 0.074 mPa·s
308 K, 101 kPa, x2 = 0.2322
  viscosity: 7.143 ± 0.051 mPa·s
308 K, 101 kPa, x2 = 0.3358
  viscosity: 4.937 ± 0.037 mPa·s
308 K, 101 kPa, x2 = 0.4443
  viscosity: 3.51 ± 0.026 mPa·s
308 K, 101 kPa, x2 = 0.5452
  viscosity: 2.453 ± 0.019 mPa·s
308 K, 101 kPa, x2 = 0.6483
  viscosity: 1.716 ± 0.013 mPa·s
308 K, 101 kPa, x2 = 0.7411
  viscosity: 1.326 ± 0.01 mPa·s
308 K, 101 kPa, x2 = 0.8311
  viscosity: 1.049 ± 0.0083 mPa·s
308 K, 101 kPa, x2 = 0.918
  viscosity: 0.8891 ± 0.0071 mPa·s
323.15 K, 101 kPa, x2 = 0.05
  viscosity: 7.54 ± 0.22 mPa·s
323.15 K, 101 kPa, x2 = 0.09
  viscosity: 6.39 ± 0.18 mPa·s
323.15 K, 101 kPa, x2 = 0.14
  viscosity: 5.53 ± 0.16 mPa·s

## CS(C)=O + CCCCO
298.15 K, 101.3 kPa, x1 = 0.0944
  viscosity: 2.225 ± 0.1 mPa·s
298.15 K, 101.3 kPa, x1 = 0.192
  viscosity: 2.017 ± 0.093 mPa·s
298.15 K, 101.3 kPa, x1 = 0.2893
  viscosity: 1.88 ± 0.087 mPa·s
298.15 K, 101.3 kPa, x1 = 0.3876
  viscosity: 1.78 ± 0.083 mPa·s
298.15 K, 101.3 kPa, x1 = 0.4688
  viscosity: 1.773 ± 0.082 mPa·s
298.15 K, 101.3 kPa, x1 = 0.5874
  viscosity: 1.77 ± 0.082 mPa·s
298.15 K, 101.3 kPa, x1 = 0.6887
  viscosity: 1.796 ± 0.083 mPa·s
298.15 K, 101.3 kPa, x1 = 0.7915
  viscosity: 1.859 ± 0.086 mPa·s
298.15 K, 101.3 kPa, x1 = 0.8839
  viscosity: 1.905 ± 0.088 mPa·s
303.15 K, 101 kPa, x1 = 0.09862
  viscosity: 1.847 ± 0.015 mPa·s
303.15 K, 101 kPa, x1 = 0.1941
  viscosity: 1.698 ± 0.021 mPa·s
303.15 K, 101 kPa, x1 = 0.2035
  viscosity: 1.685 ± 0.014 mPa·s
303.15 K, 101 kPa, x1 = 0.3043
  viscosity: 1.581 ± 0.013 mPa·s
303.15 K, 101 kPa, x1 = 0.3691
  viscosity: 1.528 ± 0.019 mPa·s
303.15 K, 101 kPa, x1 = 0.3883
  viscosity: 1.55 ± 0.013 mPa·s
303.15 K, 101 kPa, x1 = 0.4941
  viscosity: 1.534 ± 0.013 mPa·s
303.15 K, 101 kPa, x1 = 0.5276
  viscosity: 1.497 ± 0.019 mPa·s
303.15 K, 101 kPa, x1 = 0.5875
  viscosity: 1.564 ± 0.013 mPa·s
303.15 K, 101 kPa, x1 = 0.6718
  viscosity: 1.506 ± 0.019 mPa·s
303.15 K, 101 kPa, x1 = 0.6844
  viscosity: 1.605 ± 0.014 mPa·s
303.15 K, 101 kPa, x1 = 0.803
  viscosity: 1.636 ± 0.014 mPa·s
303.15 K, 101 kPa, x1 = 0.8037
  viscosity: 1.543 ± 0.019 mPa·s
303.15 K, 101 kPa, x1 = 0.9005
  viscosity: 1.682 ± 0.015 mPa·s
303.15 K, 101 kPa, x1 = 0.9297
  viscosity: 1.672 ± 0.021 mPa·s
303.15 K, 101.3 kPa, x1 = 0.0944
  viscosity: 1.97 ± 0.091 mPa·s
303.15 K, 101.3 kPa, x1 = 0.192
  viscosity: 1.848 ± 0.086 mPa·s
303.15 K, 101.3 kPa, x1 = 0.2893
  viscosity: 1.671 ± 0.078 mPa·s
303.15 K, 101.3 kPa, x1 = 0.3876
  viscosity: 1.604 ± 0.075 mPa·s
303.15 K, 101.3 kPa, x1 = 0.4688
  viscosity: 1.59 ± 0.075 mPa·s
303.15 K, 101.3 kPa, x1 = 0.5874
  viscosity: 1.599 ± 0.075 mPa·s
303.15 K, 101.3 kPa, x1 = 0.6887
  viscosity: 1.625 ± 0.076 mPa·s
303.15 K, 101.3 kPa, x1 = 0.7915
  viscosity: 1.668 ± 0.078 mPa·s
303.15 K, 101.3 kPa, x1 = 0.8839
  viscosity: 1.723 ± 0.08 mPa·s

## CCCCC(=O)OCC + CCCCCO
293.15 K, 101.33 kPa, x1 = 0.1037
  viscosity: 3.302 ± 0.044 mPa·s
293.15 K, 101.33 kPa, x1 = 0.1921
  viscosity: 2.761 ± 0.038 mPa·s
293.15 K, 101.33 kPa, x1 = 0.3001
  viscosity: 2.241 ± 0.033 mPa·s
293.15 K, 101.33 kPa, x1 = 0.4089
  viscosity: 1.841 ± 0.029 mPa·s
293.15 K, 101.33 kPa, x1 = 0.5015
  viscosity: 1.575 ± 0.026 mPa·s
293.15 K, 101.33 kPa, x1 = 0.6062
  viscosity: 1.34 ± 0.024 mPa·s
293.15 K, 101.33 kPa, x1 = 0.7081
  viscosity: 1.163 ± 0.022 mPa·s
293.15 K, 101.33 kPa, x1 = 0.8013
  viscosity: 1.036 ± 0.02 mPa·s
293.15 K, 101.33 kPa, x1 = 0.9029
  viscosity: 0.927 ± 0.019 mPa·s
303.15 K, 101.33 kPa, x1 = 0.1037
  viscosity: 2.379 ± 0.034 mPa·s
303.15 K, 101.33 kPa, x1 = 0.1921
  viscosity: 2.008 ± 0.03 mPa·s
303.15 K, 101.33 kPa, x1 = 0.3001
  viscosity: 1.651 ± 0.027 mPa·s
303.15 K, 101.33 kPa, x1 = 0.4089
  viscosity: 1.377 ± 0.024 mPa·s
303.15 K, 101.33 kPa, x1 = 0.5015
  viscosity: 1.195 ± 0.022 mPa·s
303.15 K, 101.33 kPa, x1 = 0.6062
  viscosity: 1.033 ± 0.02 mPa·s
303.15 K, 101.33 kPa, x1 = 0.7081
  viscosity: 0.912 ± 0.019 mPa·s
303.15 K, 101.33 kPa, x1 = 0.8013
  viscosity: 0.825 ± 0.018 mPa·s
303.15 K, 101.33 kPa, x1 = 0.9029
  viscosity: 0.749 ± 0.018 mPa·s
313.15 K, 101.33 kPa, x1 = 0.1037
  viscosity: 1.887 ± 0.029 mPa·s
313.15 K, 101.33 kPa, x1 = 0.1921
  viscosity: 1.61 ± 0.026 mPa·s
313.15 K, 101.33 kPa, x1 = 0.3001
  viscosity: 1.344 ± 0.024 mPa·s
313.15 K, 101.33 kPa, x1 = 0.4089
  viscosity: 1.139 ± 0.022 mPa·s
313.15 K, 101.33 kPa, x1 = 0.5015
  viscosity: 1.004 ± 0.02 mPa·s
313.15 K, 101.33 kPa, x1 = 0.6062
  viscosity: 0.884 ± 0.019 mPa·s
313.15 K, 101.33 kPa, x1 = 0.7081
  viscosity: 0.793 ± 0.018 mPa·s
313.15 K, 101.33 kPa, x1 = 0.8013
  viscosity: 0.728 ± 0.017 mPa·s
313.15 K, 101.33 kPa, x1 = 0.9029
  viscosity: 0.672 ± 0.017 mPa·s
